Measurements taken from patent US20230123334A1, “AMINO LIPID COMPOUND, PREPARATION METHOD THEREFOR, AND APPLICATION THEREOF” (SHENZHEN SHENXIN BIOTECHNOLOGY CO., LTD., priority 2020, published 2023).

Each compound was assayed on HEK293 cells (assay: Preliminary screening as DNA vectors, GFP transfection of HEK293 cells). Conditions: amino lipid/DOPE liposome with 75 ng plasmid DNA (psin-EGFP-IRES-Puro); number of GFP-expressing cells divided by total nuclei (Hoechst).
Type: cell-based
How it was run: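 Lipid + DOPE liposomes (NaOAc, pH 5.6) complexed w/ 75 ng psin-EGFP-IRES-Puro, 30 min RT; added to 3-5×10^4 HEK293/well, 37° C. Hoechst 0.2 μg/mL at 20-24 h, imaged after further 20-24 h. Efficiency = GFP+ cells / total nuclei.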
With `CCCCCCCCCCCCCCCCCCSc1nc(NCCCCCCCC)nc(NCCCN2CCN(C)CC2)n1` [S18N8 D9] the “Absolute DNA transfection efficiency in HEK293 cells” value (“Absolute DNA transfection efficiency” for short) was 6.6%. With `CCCCCCCCCCCCCCCCCCSc1nc(NCCCCCCCC)nc(NCC2CCN(C)CC2)n1` [S18N8 D10] the “Absolute DNA transfection efficiency” value was 11.7%. `CCCCCCCCCCCCCCCCCCSc1nc(NCCCCCCCCC)nc(NCCN(C)C)n1` [S18N9 D1] was tested, and the “Absolute DNA transfection efficiency” value was 5.3%. In the case of `CCCCCCCCCCCCCCCCCCSc1nc(NCCCCCCCCC)nc(NCCN2CCOCC2)n1` [S18N9 D2], the “Absolute DNA transfection efficiency” value is reported as 3.4%. `CCCCCCCCCCCCCCCCCCSc1nc(NCCCCCCCCC)nc(NCCN2CCCC2)n1` [S18N9 D3] was tested, and the “Absolute DNA transfection efficiency” value was 20.4%. For `CCCCCCCCCCCCCCCCCCSc1nc(NCCCCCCCCC)nc(NCCN2CCCCC2)n1` [S18N9 D4], the “Absolute DNA transfection efficiency” value was 4.0%. In the case of `CCCCCCCCCCCCCCCCCCSc1nc(NCCCCCCCCC)nc(NCCN2CCN(C)CC2)n1` [S18N9 D5], the “Absolute DNA transfection efficiency” value is reported as 7.7%. For `CCCCCCCCCCCCCCCCCCSc1nc(NCCCCCCCCC)nc(NCCCN(C)C)n1` [S18N9 D6], the “Absolute DNA transfection efficiency” value was 19.5%. With `CCCCCCCCCCCCCCCCCCSc1nc(NCCCCCCCCC)nc(NCCN(CC)CC)n1` [S18N9 D7] the “Absolute DNA transfection efficiency” value was 6.7%. `CCCCCCCCCCCCCCCCCCSc1nc(NCCCCCCCCC)nc(NCCCN2CCOCC2)n1` [S18N9 D8] was tested, and the “Absolute DNA transfection efficiency” value was 3.0%. `CCCCCCCCCCCCCCCCCCSc1nc(NCCCCCCCCC)nc(NCCCN2CCN(C)CC2)n1` [S18N9 D9] was tested, and the “Absolute DNA transfection efficiency” value was 0.0%. For `CCCCCCCCCCCCCCCCCCSc1nc(NCCCCCCCCC)nc(NCC2CCN(C)CC2)n1` [S18N9 D10], the “Absolute DNA transfection efficiency” value was 4.5%. For `CCCCCCCCCCCCCCCCCCSc1nc(NCCCCCCCCCCC)nc(NCCN(C)C)n1` [S18N11 D1], the “Absolute DNA transfection efficiency” value was 3.7%. In the case of `CCCCCCCCCCCCCCCCCCSc1nc(NCCCCCCCCCCC)nc(NCCN2CCOCC2)n1` [S18N11 D2], the “Absolute DNA transfection efficiency” value is reported as 1.4%. In the case of `CCCCCCCCCCCCCCCCCCSc1nc(NCCCCCCCCCCC)nc(NCCN2CCCC2)n1` [S18N11 D3], the “Absolute DNA transfection efficiency” value is reported as 4.2%. `CCCCCCCCCCCCCCCCCCSc1nc(NCCCCCCCCCCC)nc(NCCN2CCCCC2)n1` [S18N11 D4] was tested, and the “Absolute DNA transfection efficiency” value was 10.1%. `CCCCCCCCCCCCCCCCCCSc1nc(NCCCCCCCCCCC)nc(NCCN2CCN(C)CC2)n1` [S18N11 D5] was tested, and the “Absolute DNA transfection efficiency” value was 6.3%. In the case of `CCCCCCCCCCCCCCCCCCSc1nc(NCCCCCCCCCCC)nc(NCCCN(C)C)n1` [S18N11 D6], the “Absolute DNA transfection efficiency” value is reported as 5.2%. `CCCCCCCCCCCCCCCCCCSc1nc(NCCCCCCCCCCC)nc(NCCN(CC)CC)n1` [S18N11 D7] was tested, and the “Absolute DNA transfection efficiency” value was 2.7%. In the case of `CCCCCCCCCCCCCCCCCCSc1nc(NCCCCCCCCCCC)nc(NCCCN2CCOCC2)n1` [S18N11 D8], the “Absolute DNA transfection efficiency” value is reported as 1.3%. `CCCCCCCCCCCCCCCCCCSc1nc(NCCCCCCCCCCC)nc(NCCCN2CCN(C)CC2)n1` [S18N11 D9] was tested, and the “Absolute DNA transfection efficiency” value was 2.9%. `CCCCCCCCCCCCCCCCCCSc1nc(NCCCCCCCCCCC)nc(NCC2CCN(C)CC2)n1` [S18N11 D10] was tested, and the “Absolute DNA transfection efficiency” value was 2.7%. With `CCCCCCCCCCCCCCCCCCSc1nc(NCCCCCCCCCCCC)nc(NCCN(C)C)n1` [S18N12 D1] the “Absolute DNA transfection efficiency” value was 1.3%. `CCCCCCCCCCCCCCCCCCSc1nc(NCCCCCCCCCCCC)nc(NCCN2CCOCC2)n1` [S18N12 D2] was tested, and the “Absolute DNA transfection efficiency” value was 0.7%. For `CCCCCCCCCCCCCCCCCCSc1nc(NCCCCCCCCCCCC)nc(NCCN2CCCC2)n1` [S18N12 D3], the “Absolute DNA transfection efficiency” value was 1.8%. In the case of `CCCCCCCCCCCCCCCCCCSc1nc(NCCCCCCCCCCCC)nc(NCCN2CCCCC2)n1` [S18N12 D4], the “Absolute DNA transfection efficiency” value is reported as 0.3%. For `CCCCCCCCCCCCCCCCCCSc1nc(NCCCCCCCCCCCC)nc(NCCN2CCN(C)CC2)n1` [S18N12 D5], the “Absolute DNA transfection efficiency” value was 1.0%. With `CCCCCCCCCCCCCCCCCCSc1nc(NCCCCCCCCCCCC)nc(NCCCN(C)C)n1` [S18N12 D6] the “Absolute DNA transfection efficiency” value was 0.5%. For `CCCCCCCCCCCCCCCCCCSc1nc(NCCCCCCCCCCCC)nc(NCCN(CC)CC)n1` [S18N12 D7], the “Absolute DNA transfection efficiency” value was 0.5%. With `CCCCCCCCCCCCCCCCCCSc1nc(NCCCCCCCCCCCC)nc(NCCCN2CCOCC2)n1` [S18N12 D8] the “Absolute DNA transfection efficiency” value was 0.0%. For `CCCCCCCCCCCCCCCCCCSc1nc(NCCCCCCCCCCCC)nc(NCCCN2CCN(C)CC2)n1` [S18N12 D9], the “Absolute DNA transfection efficiency” value was 0.0%. For `CCCCCCCCCCCCCCCCCCSc1nc(NCCCCCCCCCCCC)nc(NCC2CCN(C)CC2)n1` [S18N12 D10], the “Absolute DNA transfection efficiency” value was 5.3%. With `CCCCCCCCCCCCCCCCCCSc1nc(NCCCCCCCCCCCCC)nc(NCCN(C)C)n1` [S18N13 D1] the “Absolute DNA transfection efficiency” value was 1.3%. With `CCCCCCCCCCCCCCCCCCSc1nc(NCCCCCCCCCCCCC)nc(NCCN2CCOCC2)n1` [S18N13 D2] the “Absolute DNA transfection efficiency” value was 0.0%. `CCCCCCCCCCCCCCCCCCSc1nc(NCCCCCCCCCCCCC)nc(NCCN2CCCC2)n1` [S18N13 D3] was tested, and the “Absolute DNA transfection efficiency” value was 2.8%. For `CCCCCCCCCCCCCCCCCCSc1nc(NCCCCCCCCCCCCC)nc(NCCN2CCCCC2)n1` [S18N13 D4], the “Absolute DNA transfection efficiency” value was 0.0%. For `CCCCCCCCCCCCCCCCCCSc1nc(NCCCCCCCCCCCCC)nc(NCCN2CCN(C)CC2)n1` [S18N13 D5], the “Absolute DNA transfection efficiency” value was 0.0%. With `CCCCCCCCCCCCCCCCCCSc1nc(NCCCCCCCCCCCCC)nc(NCCCN(C)C)n1` [S18N13 D6] the “Absolute DNA transfection efficiency” value was 2.6%. `CCCCCCCCCCCCCCCCCCSc1nc(NCCCCCCCCCCCCC)nc(NCCN(CC)CC)n1` [S18N13 D7] was tested, and the “Absolute DNA transfection efficiency” value was 0.0%. In the case of `CCCCCCCCCCCCCCCCCCSc1nc(NCCCCCCCCCCCCC)nc(NCCCN2CCOCC2)n1` [S18N13 D8], the “Absolute DNA transfection efficiency” value is reported as 0.0%. `CCCCCCCCCCCCCCCCCCSc1nc(NCCCCCCCCCCCCC)nc(NCCCN2CCN(C)CC2)n1` [S18N13 D9] was tested, and the “Absolute DNA transfection efficiency” value was 1.8%. `CCCCCCCCCCCCCCCCCCSc1nc(NCCCCCCCCCCCCC)nc(NCC2CCN(C)CC2)n1` [S18N13 D10] was tested, and the “Absolute DNA transfection efficiency” value was 0.9%. `CCCCCCCCCCCCCCCCCCSc1nc(NCCCCCCCCCCCCCCC)nc(NCCN(C)C)n1` [S18N15 D1] was tested, and the “Absolute DNA transfection efficiency” value was 0.2%. For `CCCCCCCCCCCCCCCCCCSc1nc(NCCCCCCCCCCCCCCC)nc(NCCN2CCOCC2)n1` [S18N15 D2], the “Absolute DNA transfection efficiency” value was 0.0%. In the case of `CCCCCCCCCCCCCCCCCCSc1nc(NCCCCCCCCCCCCCCC)nc(NCCN2CCCC2)n1` [S18N15 D3], the “Absolute DNA transfection efficiency” value is reported as 0.2%. For `CCCCCCCCCCCCCCCCCCSc1nc(NCCCCCCCCCCCCCCC)nc(NCCN2CCCCC2)n1` [S18N15 D4], the “Absolute DNA transfection efficiency” value was 0.2%. `CCCCCCCCCCCCCCCCCCSc1nc(NCCCCCCCCCCCCCCC)nc(NCCN2CCN(C)CC2)n1` [S18N15 D5] was tested, and the “Absolute DNA transfection efficiency” value was 0.0%. With `CCCCCCCCCCCCCCCCCCSc1nc(NCCCCCCCCCCCCCCC)nc(NCCCN(C)C)n1` [S18N15 D6] the “Absolute DNA transfection efficiency” value was 0.0%. For `CCCCCCCCCCCCCCCCCCSc1nc(NCCCCCCCCCCCCCCC)nc(NCCN(CC)CC)n1` [S18N15 D7], the “Absolute DNA transfection efficiency” value was 0.1%. `CCCCCCCCCCCCCCCCCCSc1nc(NCCCCCCCCCCCCCCC)nc(NCCCN2CCOCC2)n1` [S18N15 D8] was tested, and the “Absolute DNA transfection efficiency” value was 0.0%. With `CCCCCCCCCCCCCCCCCCSc1nc(NCCCCCCCCCCCCCCC)nc(NCCCN2CCN(C)CC2)n1` [S18N15 D9] the “Absolute DNA transfection efficiency” value was 0.1%. In the case of `CCCCCCCCCCCCCCCCCCSc1nc(NCCCCCCCCCCCCCCC)nc(NCC2CCN(C)CC2)n1` [S18N15 D10], the “Absolute DNA transfection efficiency” value is reported as 0.2%. For `CCCCCCCCCCCCCCCCCCSc1nc(NCCCCCCCCCCCCCCCC)nc(NCCN(C)C)n1` [S18N16 D1], the “Absolute DNA transfection efficiency” value was 0.0%. With `CCCCCCCCCCCCCCCCCCSc1nc(NCCCCCCCCCCCCCCCC)nc(NCCN2CCOCC2)n1` [S18N16 D2] the “Absolute DNA transfection efficiency” value was 0.0%. With `CCCCCCCCCCCCCCCCCCSc1nc(NCCCCCCCCCCCCCCCC)nc(NCCN2CCCC2)n1` [S18N16 D3] the “Absolute DNA transfection efficiency” value was 0.1%. In the case of `CCCCCCCCCCCCCCCCCCSc1nc(NCCCCCCCCCCCCCCCC)nc(NCCN2CCCCC2)n1` [S18N16 D4], the “Absolute DNA transfection efficiency” value is reported as 0.1%. In the case of `CCCCCCCCCCCCCCCCCCSc1nc(NCCCCCCCCCCCCCCCC)nc(NCCN2CCN(C)CC2)n1` [S18N16 D5], the “Absolute DNA transfection efficiency” value is reported as 0.2%. `CCCCCCCCCCCCCCCCCCSc1nc(NCCCCCCCCCCCCCCCC)nc(NCCCN(C)C)n1` [S18N16 D6] was tested, and the “Absolute DNA transfection efficiency” value was 0.0%. `CCCCCCCCCCCCCCCCCCSc1nc(NCCCCCCCCCCCCCCCC)nc(NCCN(CC)CC)n1` [S18N16 D7] was tested, and the “Absolute DNA transfection efficiency” value was 0.0%. `CCCCCCCCCCCCCCCCCCSc1nc(NCCCCCCCCCCCCCCCC)nc(NCCCN2CCOCC2)n1` [S18N16 D8] was tested, and the “Absolute DNA transfection efficiency” value was 0.0%. For `CCCCCCCCCCCCCCCCCCSc1nc(NCCCCCCCCCCCCCCCC)nc(NCCCN2CCN(C)CC2)n1` [S18N16 D9], the “Absolute DNA transfection efficiency” value was 0.0%. `CCCCCCCCCCCCCCCCCCSc1nc(NCCCCCCCCCCCCCCCC)nc(NCC2CCN(C)CC2)n1` [S18N16 D10] was tested, and the “Absolute DNA transfection efficiency” value was 0.1%. `CCCCCCCCCCCCCCCCCCNc1nc(NCCN(C)C)nc(SCCCCCCCCCCCCCCCCCC)n1` [S18N18 D1] was tested, and the “Absolute DNA transfection efficiency” value was 0.1%. For `CCCCCCCCCCCCCCCCCCNc1nc(NCCN2CCOCC2)nc(SCCCCCCCCCCCCCCCCCC)n1` [S18N18 D2], the “Absolute DNA transfection efficiency” value was 0.1%. For `CCCCCCCCCCCCCCCCCCNc1nc(NCCN2CCCC2)nc(SCCCCCCCCCCCCCCCCCC)n1` [S18N18 D3], the “Absolute DNA transfection efficiency” value was 0.0%. With `CCCCCCCCCCCCCCCCCCNc1nc(NCCN2CCCCC2)nc(SCCCCCCCCCCCCCCCCCC)n1` [S18N18 D4] the “Absolute DNA transfection efficiency” value was 0.0%.
